pEC50, pIC50: −log10 of the molar value.
Tests used:
[1] = Mouse plasma stability; type: in vitro ADME; conditions: read-out: Stability Mouse plasma t1/2
[2] = test system: TOM20 ubiquitylation; test: TOM20-ubiquitylation assay; type: cell-based, human; conditions: antimycin A/oligomycin mitophagy trigger
From the text: Human cell lines can be challenged with mitochondrial depolarizing agents (ionophores (eg. CCCP, valinomycin), mitochondrial complex inhibitors (oligomycin, antimycin A)) to induce ubiquitylation of TOM20, which is then further promoted in the presence of USP30 inhibitors. TOM20 ubiquitylation is subsequently assessed through western blotting of the cell lysates, with TOM20 ubiquitylation adduct detection possible due to an 8 kDa molecule weight increase for each molecule of ubiquitin added, resulting in laddering of a TOM20 immunoreactive band. TOM20-ubiquitylation levels can be quantified using chemiluminescence densitometry of laddered immunoreactive bands.

[3] = FaSSIF solubility; type: physicochemical; conditions: pH 6.5, simulated intestinal fluid in fasted state
From the text: (§1) log P: partition coefficient; lipophilicity measurement. log D: distribution co-efficient; lipophilicity measurement. TPSA: topological polar surface area. Turbidimetric solubility: Test compound solution prepared in DMSO diluted into aqueous buffer. Turbidimetry is used as the end-point by measuring absorbance at 620 nm. FaSSIF: simulated intestinal fluid in fasted state measured at pH 6.5. Hep Cl mouse: in vitro hepatocyte clearance in mouse cells. Hep Cl human: in vitro hepatocyte clearance in human cells. Plasma fu,p: The free fraction of a compound in plasma preparation determined by in vitro equilibrium dialysis. It is understood that only unbound (free) compound is capable of engaging with the target. Brain fu,br: The free fraction of a compound in brain homogenate preparation determined by in vitro equilibrium dialysis. It is understood that only unbound (free) compound is capable of engaging with the target. Clu: in vitro clearance. Clu as defined here is the scaled clearance, in turn calculated from the intrinsic clearance. The intrinsic clearance is the predicted clearance due to hepatic metabolic reactions, determined from incubation of a compound in a hepatocyte preparation. […] Cl in vivo clearance: Pharmacokinetic measurement of the volume of plasma (or any matrix) from which a substance is completely removed per unit time.

[4] = target: T1, USP30 (Homo sapiens, UniProt Q70CQ3); test: USP30 biochemical IC50 assay (fluorescence polarisation); conditions: for fold more potent against USP30 than Reference Example A / fold more potent against USP30 than Reference Example B / fold more potent against USP30 than Reference Example C / fold more potent against USP30 than Reference Example D: biochemical assay; for pIC50: read-out: USP30 IC50
T1 construct: purchased Boston Biochem E582
T1 sequence (Q70CQ3 57-517 limits assumed): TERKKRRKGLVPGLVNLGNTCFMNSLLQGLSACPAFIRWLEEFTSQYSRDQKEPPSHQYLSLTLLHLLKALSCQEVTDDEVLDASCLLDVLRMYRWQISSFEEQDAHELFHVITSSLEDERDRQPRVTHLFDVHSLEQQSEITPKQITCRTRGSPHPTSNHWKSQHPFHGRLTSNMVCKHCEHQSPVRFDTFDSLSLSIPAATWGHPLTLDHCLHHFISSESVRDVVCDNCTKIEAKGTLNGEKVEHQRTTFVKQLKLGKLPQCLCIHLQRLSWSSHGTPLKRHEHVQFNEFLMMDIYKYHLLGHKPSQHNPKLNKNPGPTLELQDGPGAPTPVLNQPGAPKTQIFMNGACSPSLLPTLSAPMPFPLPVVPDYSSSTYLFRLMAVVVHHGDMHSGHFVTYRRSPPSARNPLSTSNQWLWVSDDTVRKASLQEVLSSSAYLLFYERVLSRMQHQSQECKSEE
Procedure: Dilution plates were prepared at 21 times the final concentration (2100 μM for a final concentration of 100 μM) in 50% DMSO in a 96-well polypropylene V-bottom plate (Greiner #651201). A typical 8-point dilution series would be 100, 30, 10, 3, 1, 0.3, 0.1, 0.03 μM final. Reactions were performed in duplicate in black 384 well plates (small volume, Greiner 784076) in a final reaction volume of 21 μl. Either 1 μl of 50% DMSO or diluted compound was added to the plate. USP30 (Boston Biochem #E582) was diluted in reaction buffer (40 mM Tris, pH 7.5, 0.005% Tween 20, 0.5 mg/ml BSA, 5 mM beta-mercaptoethanol) to achieve a final assay concentration of 4 nM, and 10 μl of diluted USP30 was added to the compound. Enzyme and compound were incubated for 30 min at room temp. Reactions were initiated by the addition of 50 nM of TAMRA labelled peptide linked to ubiquitin via an iso-peptide bond as fluorescence polarisation substrate. Reactions were read immediately after addition of substrate and following a 2-hour incubation at room temperature. Readings were performed on a Pherastar Plus (BMG Labtech). λ Excitation 540 nm; Emission 590 nm.

[5] = test system: hepatocyte; test: Hepatocyte clearance human; type: in vitro ADME; conditions: human hepatocytes
From the text: as §1

[6] = Turbidimetric solubility; type: physicochemical; conditions: aqueous buffer, kinetic from dmso stock
From the text: as §1

[7] = test system: UCHL1, USP1, USP2, USP6, USP9x, USP10, USP15, USP16, USP20, USP21, USP22, USP25, USP28, USP35, USP36, USP46/UAF1; test: DUB biochemical IC50 assays (off-target panel)
[8] = test system: Salmonella typhimurium strains TA98, TA100, TA1535 and TA97a and the Escherichia Coli strain WP2 uvrA pKM101; test: Bacterial reverse mutation assay (Ames); type: cell-based; conditions: up to 1000 μg/well (5000 μg/plate), with and without metabolic activation
Procedure: The bacterial reverse mutation assay (Ames Test) may be used to evaluate the mutagenic properties of compounds of the invention, commonly by using the bacterial strain Salmonella typhimurium, which is mutant for the biosynthesis of the amino acid histidine.
Example 1 was assessed in the bacterial reverse mutation assay (Ames) and in vitro micronucleus assay. All in vitro tests were conducted with and without exogenous metabolic activation using concentrations up to those limited by cytotoxicity or insolubility.
Example 2 was assessed in the bacterial reverse mutation assay (Ames). All in vitro tests were conducted with and without exogenous metabolic activation using concentrations up to those limited by cytotoxicity or insolubility.

[9] = target: Cathepsin B (Homo sapiens, UniProt P07858); test: Cathepsin IC50, Cathepsin B; type: biochemical
[10] = test system: hepatocyte; test: Hepatocyte clearance mouse; type: in vitro ADME; conditions: mouse hepatocytes
From the text: as §1

[11] = target: Cathepsin V (Homo sapiens, UniProt O60911); test: Cathepsin IC50, Cathepsin V; type: biochemical
Cathepsin V, sequence (O60911 114-334, species assumed): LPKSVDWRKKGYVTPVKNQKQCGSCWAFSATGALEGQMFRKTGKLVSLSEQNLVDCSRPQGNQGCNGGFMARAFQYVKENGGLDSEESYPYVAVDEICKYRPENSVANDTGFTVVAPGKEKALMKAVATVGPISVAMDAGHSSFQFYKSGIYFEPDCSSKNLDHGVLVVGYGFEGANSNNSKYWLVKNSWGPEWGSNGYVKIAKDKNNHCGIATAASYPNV

[12] = test system: HCT116 human colorectal carcinoma cells; test: In vitro cytotoxicity (Cell Tox), alamarBlue; type: cell-based; conditions: HCT-116, 96-hour continual compound exposure
Procedure: In Vitro Cytotoxicity (Cell Tox): Measured in HCT116 human colorectal carcinoma cells using alamarBlue™ as the assay endpoint. Compound cytotoxicity was measured over a period of 96-hour continual compound exposure.

Compound	half-life [1]	TOM20-Ub 1.5-fold gain EC1.5x (μM) [2]	FaSSIF (μM) measured at pH 6.5 [3]	fold more potent against USP30 than Reference Example A [4]	fold more potent against USP30 than Reference Example B [4]	fold more potent against USP30 than Reference Example C [4]	fold more potent against USP30 than Reference Example D [4]	pIC50 [4]	Hepatocyte Cl human scaled Clu [5]	solubility [6]	more selective for USP30 over DUB panel ([7]; v the 16 DUBs of the 9th table)	induction of mutations, reverse mutation assay ([8]; TA98, TA100, TA1535, TA97a and E. coli WP2 uvrA pKM101)	IC50 [9]	Hepatocyte Cl mouse scaled Clu [10]	IC50 [11]	pEC50 [12]	more selective for USP30 over DUB panel ([7]; v the 14 DUBs of the 10th table)	induction of mutations, reverse mutation assay ([8]; TA98 and TA100)
COC[C@@H]1C[C@@H](NC(=O)c2ncc(-c3cccc(OC(F)(F)F)c3)o2)CN1C#N [Example 1, N-((3R,5S)-1-Cyano-5-(methoxymethyl)pyrrolidin-3-yl)-5-(3-(trifluoromethoxy)phenyl)oxazole-2-carboxamide]	11 h	0.011 (n = 6) μM	89 μM	14 fold	34 fold	62 fold	880 fold	8.30	5.6 mL/min/kg	> 100 µM	(≥880 × more selective	did not induce mutations	44.3 µM	84.7 mL/min/kg	132 µM	< 4.52		
C[C@@H]1C[C@@H](NC(=O)c2ncc(-c3cccc(OC(F)(F)F)c3)o2)CN1C#N [Example 2, N-((3R,5R)-1-Cyano-5-methylpyrrolidin-3-yl)-5-(3-(trifluoromethoxy)phenyl)oxazole-2-carboxamide]	7 h	0.009 (n = 4) μM	25 μM	14 fold	34 fold	62 fold	880 fold	8.30	11.2 mL/min/kg	> 100 µM			> 30 µM	130.6 mL/min/kg	> 30 µM	4.62	(≥940 × more selective	did not induce mutations

Reference: patent publication US20230119013A1, “N-CYANOPYRROLIDINES WITH ACTIVITY AS USP30 INHIBITORS” (MISSION THERAPEUTICS LIMITED, priority 2020, published 2023)
